Test results taken from US9676859B2, “In vitro generation of dendritic cells by exposure to an anti-CSF1-R antibody” (TRANSGENE SA, priority 2012, dated 2017).

How the values were obtained:
IL-10 = IL-10 titration in day-6 macrophage culture supernatants; type: cell-based, human; conditions: day-6 supernatants; GW2580 1 μM
Description: (§1) IL-12p70 and IL-10 were titrated in the culture supernatants from day-6 macrophages differentiated in the presence of mAb H27K15 (1 μg/ml), GW2580 (1 μM) or their respective negative controls rituximab or no treatment. Left panel: IL-12p70 and IL-10 levels […] in macrophage cultures from 3 blood donors. Right: IL-12p70 […]/IL-10 […] ratios were calculated for each blood donor and each culture condition. In samples where IL-12p70 was undetectable (below the detection limit of 11 pg/m)l, its level was arbitrarily set at 1 pg/ml for the calculation of IL-12p70/IL-10 ratios.
(§2) Buffy coats were provided by the Etablissement Français du Sang (EFS, Strasbourg). Peripheral blood mononucleated cells (PBMC) were obtained by centrifugation on a ficoll gradient. Monocytes were purified by immunomagnetic cell sorting, using CD14-antibody-coated beads (Miltenyii). Enriched monocyte suspensions were more than 95% pure. […] Cells were detached from the plastic and pools of triplicates were analyzed by IC/FC (immunocytochemistry/flow cytometry) for cell sizes and expression of FcγR and CD86. Cytokines and chemokines were quantified in the culture supernatants by multiplex (Bioplex, Bio-Rad) or by ELISA. […]

MCP-1/CCL2 = MCP-1/CCL2 titration in day-6 macrophage culture supernatants; type: cell-based, human; conditions: day-6 supernatants; H27K15 1 μg/ml, GW2580 1 μM
Description: MCP-1 and IL-6 were titrated in the culture supernatants from day-6 macrophages differentiated in the presence of mAb H27K15 (1 μg/ml), GW2580 (1 μM) or their respective negative controls rituximab or no treatment. Percentages of reduction in MCP-1 (upper panel) or in IL-6 production (lower panel) were calculated for the 3 blood donors as: 100−[100×cytokine concentration with test compound (pg/ml)/cytokine concentration with control (pg/ml)].
as §2, with “pure. Monocytes were differentiated for 6 days in 48-well plates (3×10^5 cells/well) in RPMI-Glutamax™ medium supplemented with 10% heat inactivated fetal calf serum and 1% tri-antibiotic mixture (penicillin, streptomycin, neomycin). GM-CSF (10 ng/ml) was added in the cell culture medium from day 0 to day 3.” for “pure.”

[1] = tested on: CD163+ M2-type macrophages; assay: Flow cytometry of CD163-positive M2-type macrophages in day-6 cultures; type: cell-based, human; conditions: day-6 cultures with GM-CSF and CSF-1; 3 donors
Description: Cells obtained after 6-day culture with GM-CSF and CSF-1 were harvested and incubated for 20 min at 4° C. with PBS containing human IgG Fc fragments to saturate Fc receptors. Fluorochrome-conjugated mAbs (anti-CD14-PerCP-Cy5.5, anti-CD163-PE, anti-CD206-APC, anti-CD1a-FITC, BD Biosciences) were then incubated with each sample for 20 min at 4° C. FCM analysis was performed using a FACS LSR-II (BD biosciences) with the DIVA software. Data from 3 different blood donors are presented.
The surface expression of CD163 was analyzed by flow cytometry in day-6 macrophages derived from human monocytes cultured with GM-CSF and CSF-1. […] Culture with mAb H27K15 inhibited the differentiation of the CD163^+ macrophage population in all 3 donors tested. In the presence of 1 μg/ml H27K15, percentages of CD163-positive cells decreased from 2.5 to 4 folds compared with control cultures treated with rituximab.

CD86 = assay: Induction of CD86bright SSClow macrophage population by IC/FC; type: cell-based, human; conditions: day-6 macrophages; mAb 10, 1, 0.1 μg/ml, F(ab′)2 equimolar, GW2580 1 μM
Description: Upper panels: Dot plots showing CD86 staining (x-axis) and side scatter (SSC, y-axis) of macrophages from donor 3 differentiated for 6 days in the presence of H27K15 (left) or negative control rituximab (right). A gate was set on the CD86^bright SSC^low cell population induced by H27K15. Lower panel: Percentages of CD86^bright SSC^low cells with the test compounds at 10, 1 or 0.1 μg/ml* were compared with those in the corresponding negative controls: H27K15 vs rituximab, H27K15-derived F(ab′)2 vs rituximab-derived F(ab′)2, GW2580 vs no treatment. Percentages of increase in the CD86^bright SSC^low cell population were calculated as: 100×percentage of CD86^bright SSC^low cells with test compound/percentage of CD86^bright SSC^low cells with control. Shown are the mean percentages of increase in the CD86^bright SSC^low cell population from the 3 blood donors. *except for F(ab′)2: 6.6; 0.6; and 0.06 μg/ml.
as §2, with “gradient.” for “gradient. Monocytes were purified by immunomagnetic cell sorting, using CD14-antibody-coated beads (Miltenyii). Enriched monocyte suspensions were more than 95% pure.”

CD64 (FcγRI) = assay: Surface expression of CD64 on day-6 macrophages by IC/FC; type: cell-based, human; conditions: GW2580 1 μM vs no treatment
Description: Macrophages obtained following a 6-day culture of monocyte, or precursors thereof from 3 different blood donors with GM-CSF and CSF-1 were analyzed by IC/FC for surface expression of CD64. Upper panels: CD64 staining in cultures from donor 1 treated with monoclonal antibody H27K15 (left, bold line) or with GW2580 (right, bold line) or their respective negative controls rituximab (left, thin line) or no treatment (right, thin line). Lower panel: Medians of fluorescence intensities in macrophage cultures treated with test compounds at 10, 1 or 0.1 μg/ml* were compared with those in the corresponding negative controls: H27K15 vs rituximab, H27K15-derived F(ab′)2 vs rituximab-derived F(ab′)2, mAbs 2-4A5 or 9-4D2 vs rat IgG1, GW2580 vs no treatment. Percentages of reduction in CD64 expression were calculated as: 100−[100×Median fluorescence intensity with test compound/Median fluorescence intensity with control]. […]
Buffy coats were provided by the Etablissement Français du Sang (EFS, Strasbourg). […] Cells were detached from the plastic and pools of triplicates were analyzed by IC/FC (immunocytochemistry/flow cytometry) for cell sizes and expression of FcγR and CD86. Cytokines and chemokines were quantified in the culture supernatants by multiplex (Bioplex, Bio-Rad) or by ELISA. […]

IL-12p70 = IL-12p70 titration in day-6 macrophage culture supernatants; type: cell-based, human; conditions: day-6 supernatants, 3 blood donors, GW2580 1 μM; for IL-12p70 secretion: mAbs 1 μg/ml, detection limit 11 pg/ml
Description: as §1
(§3) Buffy coats were provided by the Etablissement Français du Sang (EFS, Strasbourg). Peripheral blood mononucleated cells (PBMC) were obtained by centrifugation on a ficoll gradient. Monocytes were purified by immunomagnetic cell sorting, using CD14-antibody-coated beads (Miltenyii). Enriched monocyte suspensions were more than 95% pure. Monocytes were differentiated for 6 days in 48-well plates (3×10^5 cells/well) in RPMI-Glutamax™ medium supplemented with 10% heat inactivated fetal calf serum and 1% tri-antibiotic mixture (penicillin, streptomycin, neomycin). GM-CSF (10 ng/ml) was added in the cell culture medium from day 0 to day 3. H27K15, other antibodies or internal control GW2580 (LC Labs) were added at day 0. On day 3 post-isolation, monocytes were washed with PBS and further cultivated in medium supplemented with CSF-1 (10 ng/ml) and GM-CSF (2 ng/ml), in the presence or absence of antibodies or GW2580. On day 6, supernatants were collected and stored at −20° C. Cells were detached from the plastic and pools of triplicates were analyzed by IC/FC (immunocytochemistry/flow cytometry) for cell sizes and expression of FcγR and CD86. Cytokines and chemokines were quantified in the culture supernatants by multiplex (Bioplex, Bio-Rad) or by ELISA.
IL-12p70 and IL-10 were titrated in day-6 culture supernatants.

MMP-9 = MMP-9 ELISA in day-6 supernatants of monocytes cultured with GM-CSF and CSF-1; type: cell-based, human; conditions: mAb 0.1, 1, 10 μg/ml, F(ab)′2 equimolar, effect in 2 out of 3 donors
Description: Monocytes isolated from 3 different blood donors were differentiated for 6 days in the presence of GM-CSF and CSF-1, with or without mAb H27K15, Rituximab or GW2580. MAb H27K15 or Rituximab (0.1, 1 or 10 μg/ml) or equimolar concentrations of F(ab)′2 derived from both mAbs were added to the cultures. MMP-9 was titrated by ELISA (R&D Systems) in day-6 culture supernatants.
CD14^+ monocytes from 3 different donors were allowed to differentiate in the presence of both GM-CSF and CSF-1, known to induce macrophage differentiation towards respectively the M1- and M2-types. MAb H27K15 or Rituximab (used as a negative control) were added to the cultures at 0.1, 1 or 10 μg/ml. Equimolar concentrations of F(ab)′2 derived from both mAbs were assayed in parallel. The tyrosine kinase inhibitor GW2580, previously shown to inhibit the CSF-1-dependent proliferation of human monocytes and the differentiation of murine macrophages in vitro was tested in the same assay. After 6 days of culture, MMP-9 concentrations were measured in the supernatants by ELISA (FIG. 6). […] Thus, mAb H27K15 is capable of decreasing MMP-9 secretion by differentiating M2 macrophages.

[2] = tested on: differentiating macrophages; assay: Human macrophage differentiation assay: microscopical observation and cell counts of day-6 cultures (cytotoxicity); type: cell-based; conditions: for Microscopical observation of day-6 cultures (cytotoxicity), compared with untreated cells: all doses evaluated (mAbs 0.1, 1, 10 μg/ml, F(ab′)2 0.066, 0.66, 6.6 μg/ml), all donors
Description: Cells were counted following a 6-day culture of monocyte, or precursors thereof, s with GM-CSF and CSF-1, in the presence or absence of anti-CD115 mAbs or F(ab′)2 or with GW2580. Controls included cultures treated with rituximab or rituximab F(ab′)2, or without any added compound.
as §3, with “Enriched monocyte suspensions were more than 95% pure.” left out
Three different doses of mab H27K15 or isotype control rituximab (0.1; 1 or 10 μg/ml) were added to the culture medium at the beginning of the culture and again 3 days later. F(ab′)2 generated from H27K15 or from rituximab were tested in parallel at equivalent molar concentrations.
Cell viability was analyzed at day 6 by counting 5 microscope fields in each well of the plate (one in the center of the well and four fields at mid-distance between the center and the side of the well).

Molecule | IL-10 production (IL-10) | production of the chemokine MCP-1/CCL2 (MCP-1/CCL2) | differentiation of the CD163+ macrophage population [1] | Induction of CD86bright SSClow cell sub-population (CD86) | surface expression of CD64 (CD64 (FcγRI)) | IL-12p70/IL-10 ratios (IL-12p70; H27K15 1 μg/ml, vs rituximab or no treatment) | IL-12p70 secretion (IL-12p70) | MMP-9 production (MMP-9) | macrophage number remained at day 6 compared with untreated cultures ([2]; 1 μM) | Microscopical observation of day-6 cultures (cytotoxicity) ([2]; 1 μM, all blood donors) | Microscopical observation of day-6 cultures (cytotoxicity), compared with untreated cells [2]
COc1ccc(COc2ccc(Cc3cnc(N)nc3N)cc2OC)cc1 [GW2580, reference compound] | inhibition | almost totally suppressed | same effect in only 2/3 donors | had appeared | drastically reduced | increased | not detectable | dose-dependent decrease | approximately 70% | relative cytotoxicity | 
Rituximab F(ab′)2: F(ab′)2 produced by pepsine digestion of rituximab, negative control |  |  |  |  |  |  |  |  |  |  | no obvious differences
Rituximab: human IgG1 isotype / negative control, obtained from Roche |  |  |  |  |  |  | did not produce any detectable IL-12p70 |  |  |  | no obvious differences
